{"source": "patent US20060183897A1", "about": "“Biaryl substituted triazoles as sodium channel blockers” (priority 2003, published 2006)", "origin": "cited, not measured here", "key": {"[1]": {"system": "rat models of peripheral nerve injury", "conditions": "intravenous application; concentrations that do not affect general behavior and motor function"}, "[2]": {"system": "patients with peripheral nerve injury", "conditions": "continuous infusion; placebo-controlled"}, "[3]": {"system": "postherpetic neuralgia (PHN)", "conditions": "intravenous"}}}
{"smiles": "CCN(CC)CC(=O)Nc1c(C)cccc1C", "note": "[lidocaine]", "values": [{"measurement": "ectopic activity in the injured nerve", "setting": "[1]", "value": "suppress the ectopic activity"}, {"measurement": "tactile allodynia", "setting": "[1]", "value": "reverse the tactile allodynia"}, {"measurement": "pain scores", "setting": "[2]", "value": "reduced pain scores"}, {"measurement": "pain intensity associated with postherpetic neuralgia", "setting": "[3]", "value": "reduced pain intensity"}]}
